Experimental data from US20180311204A1, “METHOD FOR PREVENTING OR TREATING HEART FAILURE” (GUANGZHOU MEDICAL UNIVERSITY, priority 2017, published 2018).

What was measured:
[1] = test system: Myocardial Ischemia Rat Model; assay: Echocardiography in myocardial ischemia rat model (LAD ligation), effect of nobiletin on ventricle; assay type: in vivo; settings: 21-day experiment, compared to the infarction group
[2] = test system: H9C2 cells; assay: Apoptosis detection by Annexin V/PI staining in cardiomyocytes subjected to oxygen-glucose deprivation (OGD); assay type: cell-based; settings: H9C2 cells with OGD treatment, 5, 10, 20, 40, 80 μM nobiletin, dose-dependent manner, versus OGD control
Experimental: In vitro, H9C2 cells with OGD treatment were used to model myocardial ischemia. OGD treatment: the cells were cultured and subjected to OGD when the density of the cells reached to 80%-90%. Collected the OGD-treated cells from the medium and rinsed trice with glucose-free EBSS, after that cultured the cells in the same medium at 37° C. in an anoxia chamber saturated with 94% N2/5% CO2/1% O2 for a preset time.
After previous procedures, the cells were digested with 0.25% trypsin and collected to stain with both fluorescein isothiocyanate (FITC) labeled […] (Annexin V-FITC) and PI (according to the manufacturer's protocol of Annexin V-FITC kits). Flow cytometry detection was carried out immediately under an excitation wavelength of […] to detect 1×10^4 cells. PI emits light of a wavelength about 623 nm (red fluorescence) while FITC emits light of about 520 nm (green fluorescence). Analyzed the detection data by CELLQEST Software and the results were shown in scatter plots (see FIG. 9A-9F) and statistics (see FIG. 10).

[3] = test system: Myocardial Ischemia Rat Model; assay: Determination of infarct size by TTC staining; assay type: in vivo; settings: compared to the infarction group
Experimental: 60 rats were randomized into 6 groups: (i) sham group (Sham), n=10, (left anterior descending (LAD) coronary arteries of the rats were only laid upon sutures without ligation, and 0.5% Tween normal saline was injected intraperitoneally); (ii) infarction group (AMI), n=10, (LAD coronary arteries of the rats were ligated before 0.5% Tween normal saline was injected intraperitoneally); (iii) nobiletin group of low dosage (AMI+NOB-L, n=10; LAD coronary arteries of the rats were ligated before 7.5 mg/kg nobiletin was injected intraperitoneally); (v) nobiletin group of medium dosage (AMI+NOB-M), n=10, (LAD coronary arteries of the rats were ligated before 15 mg/kg nobiletin was injected intraperitoneally); (vi) nobiletin group of high dosage (AMI+NOB-H), n=10, (LAD coronary arteries of the rats were ligated before 30 mg/kg nobiletin was injected intraperitoneally); (vii) enalapril group (AMI+Enalapril), n=10, (LAD coronary arteries of the rats were ligated before 10 mg/kg enalapril was given intragastrically); echocardiograms were taken after the 21-day experiment. Male SD rats were weighed and then anaesthetized by intraperitoneal injections of 10% chloral hydrate (300 mg/kg). The rats were fixed on a table lying on their back, each connected with an electrocardiography and 2-lead electrocardiograms (ECGs) were recorded. The rats were inserted with trachea cannulas and artificially ventilated with a ventilator (positive airway pressure, frequency: 70 times/min, Ti/(I:E)=5:4, VT: about 15 ml/kg). Sterilized the left parasternal skin on the third and forth intercostals regions, cut the skin and separated muscle layers trough blunt dissection, opened the thorax, then cut the pericardium to expose the left ventricle and the left auricle, the left ventricle coronary artery was seen descending from the middle of the left auricle to the anterior wall of the left ventricle (see FIG. 1). Using left coronary artery as a reference, between left auricle and pulmonary conus arteriosus, the left anterior descending (LAD) coronary arteries of the rats were ligated by NO. 6-0 sutures. ST segments rose in 2-lead electrocardiogram of the rat after LAD ligation (see FIG. 2), and myocardial ischemia symptoms such as the distal myocardial tissues turned pale after LAD ligation acted as an index of whether the ligation worked (see FIG. 3). Sham-treated rats underwent the same surgical procedure without the ligation of LAD coronary artery. […] When myocardial infarction occurs for some time, dehydrogenases in the cells were released and lost due to cell membrane damages. Because TTC is not deoxidized into a colored form, infarcted myocardium cannot be stained. […] (2) […]: Removed atriums and right ventricles, restored left ventricles were weighed and recorded. […] Weighed and recorded each slices. […]

[4] = AMI+NOB-H, 30 mg/kg intraperitoneally
[5] = AMI+NOB-M, 15 mg/kg intraperitoneally
[6] = nobiletin groups (7.5, 15, 30 mg/kg intraperitoneally)
[7] = AMI+Enalapril, 10 mg/kg intragastrically
[8] = enalapril group, 10 mg/kg intragastrically

Structure (SMILES)	left ventricular ejection fraction (LVEF) [1, 4]	left ventricular fractional shortening (LVFS) [1, 4]	rise of left ventricular internal dimension, diastolic (LVIDD) [1, 4]	rise of left ventricular internal dimension, systolic (LVIDS) [1, 4]	left ventricular ejection fraction (LVEF) [1, 5]	left ventricular fractional shortening (LVFS) [1, 5]	rise of left ventricular internal dimension, diastolic (LVIDD) [1, 5]	rise of left ventricular internal dimension, systolic (LVIDS) [1, 5]	apoptosis resulting from OGD [2]	infarct area percentages (FIG. 8) [3, 6]	white infarct areas in TTC-stained myocardium (FIG. 7) [3, 6]	left ventricular ejection fraction (LVEF) [1, 7]	left ventricular fractional shortening (LVFS) [1, 7]	rise of left ventricular internal dimension, diastolic (LVIDD) [1, 7]	rise of left ventricular internal dimension, systolic (LVIDS) [1, 7]	infarct area percentages (FIG. 8) [3, 8]	white infarct areas in TTC-stained myocardium (FIG. 7) [3, 8]
COc1ccc(-c2cc(=O)c3c(OC)c(OC)c(OC)c(OC)c3o2)cc1OC [nobiletin]	significantly increased	significantly increased	no significant reduction	significantly reduced	significantly increased	significantly increased	no significant reduction	significantly reduced	significantly reduced	lower	smaller	–	–	–	–	–	–
CCOC(=O)[C@H](CCc1ccccc1)N[C@@H](C)C(=O)N1CCC[C@H]1C(=O)O [enalapril, reference compound]	–	–	–	–	–	–	–	–	–	–	–	significantly increased	significantly increased	no significant reduction	significantly reduced	lower	smaller
